ChEMBL document CHEMBL5143655, “Synthesis and biological evaluation of 1,2,4-triazole derivatives as potential Nrf2 activators for the treatment of cerebral ischemic injury” (Eur J Med Chem, 2022)

What was measured:
[1] = test system: PC-12; test: Neuroprotective activity against SNP induced rat PC-12 cells assessed as increase in cell viability at 5 uM preincubated for 2 hrs followed by SNP stimulation for 24 hrs by MTT assay relative to control; type: functional
[2] = Cytotoxicity against human HaCaT cells assessed as reduction in cell viability by MTT assay; type: toxicity, cell-based
[3] = Cytotoxicity against rat PC-12 cells assessed as reduction in cell viability by MTT assay; type: toxicity, cell-based
[4] = test system: PC-12; test: Neuroprotective activity against SNP induced rat PC-12 cells assessed as increase in cell viability at 1 uM preincubated for 2 hrs followed by SNP stimulation for 24 hrs by MTT assay relative to control; type: functional
[5] = test system: PC-12; test: Neuroprotective activity against SNP induced rat PC-12 cells assessed as increase in cell viability at 10 uM preincubated for 2 hrs followed by SNP stimulation for 24 hrs by MTT assay relative to control; type: functional
[6] = Plasma protein binding in Sprague-Dawley rat plasma at 10 uM incubated for 6 hrs by LC-MS/MS based equilibrium dialysis method; type: ADME, cell-free; conditions: read-out: PPB (converted)
[7] = Plasma protein binding in human plasma at 10 uM incubated for 6 hrs by LC-MS/MS based equilibrium dialysis method; type: ADME, cell-free; conditions: read-out: PPB (converted)
[8] = test system: Rattus norvegicus; test: Neuroprotective activity in Sprague-Dawley rat model of middle cerebral artery occlusion-induced ischemia-reperfusion injury assessed as decrease in cerebral infarct volume at 5 mg/kg, ip preincubated for 1 hrs followed by MCAO operation and further incubated with compound for 4 hrs after reperfusion by TTC staining based assay; type: functional; set-up: scale not given: the % may be the effect or the level left; conditions: time 5 hrs
[9] = Metabolic stability in human plasma assessed as parent compound remaining at 200 uM measured after 15 min by LC-MS/MS analysis relative to control; type: ADME, cell-free; conditions: read-out: Stability
[10] = Metabolic stability in human plasma assessed as half life at 200 uM by LC-MS/MS analysis relative to control; type: ADME, cell-free
[11] = Metabolic stability in human plasma assessed as parent compound remaining at 200 uM measured after 120 min by LC-MS/MS analysis relative to control; type: ADME, cell-free; conditions: read-out: Stability
[12] = Metabolic stability in human plasma assessed as parent compound remaining at 200 uM measured after 60 min by LC-MS/MS analysis relative to control; type: ADME, cell-free; conditions: read-out: Stability
[13] = Metabolic stability in human plasma assessed as parent compound remaining at 200 uM measured after 90 min by LC-MS/MS analysis relative to control; type: ADME, cell-free; conditions: read-out: Stability

SMILES | Activity [1] [%] | IC50 [2] [µM] | IC50 [3] [µM] | Activity [4] [%] | Activity [5] [%] | further results
CCc1ccc(-n2nc(-c3ccc(C(F)(F)F)cc3O)nc2-c2ccccc2O)cc1 | 95.36 | 57 | 147 | 64.43 | 106.61 | –
Cc1ccc(-n2nc(-c3ccc(C(F)(F)F)cc3O)nc2-c2ccccc2O)cc1 | 94.12 | 81.8 | 113 | 71.49 | 102.45 | –
Oc1cc(C(F)(F)F)ccc1-c1nc(-c2ccccc2O)n(-c2cc(C(F)(F)F)cc(C(F)(F)F)c2)n1 | 75.68 | – | – | 68.89 | 86.16 | –
COc1ccc(-n2nc(-c3ccc(C(F)(F)F)cc3O)nc2-c2ccccc2O)cc1 | 86.56 | – | – | 69.04 | 98.85 | –
CC(=O)N1CCN(c2ccc(OCC3COC(Cn4ccnc4)(c4ccc(Cl)cc4Cl)O3)cc2)CC1 (configuration not stated) [KETOCONAZOLE] | – | – | – | – | – | fraction unbound at 6 h, 10 µM [6]: 0.0032; fraction unbound at 6 h, 10 µM [7]: 0.0128
Oc1cc(C(F)(F)F)ccc1-c1nc(-c2ccccc2O)n(-c2ccccc2F)n1 | 86.63 | – | – | 63.42 | 100.18 | –
Oc1cc(C(F)(F)F)ccc1-c1nc(-c2ccccc2O)n(-c2ccc(Cl)cc2Cl)n1 | 86.73 | – | – | 68.99 | 95.21 | –
COc1cccc(-n2nc(-c3ccc(C(F)(F)F)cc3O)nc2-c2ccccc2O)c1 | 96.76 | 81.1 | 56.4 | 68.27 | 105.81 | –
Oc1cc(C(F)(F)F)ccc1-c1nc(-c2ccccc2O)n(-c2ccc(I)cc2)n1 | 94.41 | 32.1 | 73.3 | 70.13 | 104.51 | –
Oc1cc(C(F)(F)F)ccc1-c1nc(-c2ccccc2O)n(-c2ccc(C(F)(F)F)cc2)n1 | 90.51 | – | – | 70.66 | 101.67 | –
Oc1cc(C(F)(F)F)ccc1-c1nc(-c2ccccc2O)n(-c2ccc(F)cc2)n1 | 86.71 | – | – | 67.16 | 99.83 | –
CC1=NN(c2ccccc2)C(=O)C1 [EDARAVONE] | 70.3 | – | – | 58.41 | 80.25 | Activity [8]: 12.77%
Oc1cc(C(F)(F)F)ccc1-c1nc(-c2ccccc2O)n(-c2ccc(F)cc2F)n1 | 83.53 | – | – | 65.92 | 97.86 | –
CC(C)(C)c1ccc(-n2nc(-c3ccc(C(F)(F)F)cc3O)nc2-c2ccccc2O)cc1 | 77.77 | – | – | 67.29 | 81.14 | –
Oc1ccccc1-c1nc(-c2ccc(C(F)(F)F)cc2)no1 | 81.39 | – | – | 75.88 | 84.7 | –
Oc1cc(C(F)(F)F)ccc1-c1nc(-c2ccccc2O)n(-c2ccc(OC(F)(F)F)cc2)n1 | 84.94 | – | – | 65.49 | 92.54 | –
Oc1cc(C(F)(F)F)ccc1-c1nc(-c2ccccc2O)n(-c2ccccc2Cl)n1 | 90.63 | – | – | 70.08 | 102.19 | –
Oc1cc(C(F)(F)F)ccc1-c1nc(-c2ccccc2O)n(-c2ccc(Br)cc2)n1 | 89.76 | 29.6 | 66.8 | 69.35 | 100.49 | –
N#Cc1ccc(-n2nc(-c3ccc(C(F)(F)F)cc3O)nc2-c2ccccc2O)cc1 | 86.8 | – | – | 66.6 | 98.91 | –
Oc1cc(C(F)(F)F)ccc1-c1nc(-c2ccccc2O)n(-c2cc(F)cc(F)c2)n1 | 100.23 | 45.4 | 53.7 | 75.47 | 106.29 | –
Oc1cc(C(F)(F)F)ccc1-c1nc(-c2ccccc2O)n(-c2cccc(F)c2)n1 | 87.66 | – | – | 67.24 | 98.25 | –
Oc1cc(C(F)(F)F)ccc1-c1nc(-c2ccccc2O)n(-c2cccc(C(F)(F)F)c2)n1 | 92.2 | 54.3 | 49.7 | 71.47 | 99.9 | –
CC(C)[N+](C)(CCOC(=O)C1c2ccccc2Oc2ccccc21)C(C)C [PROPANTHELINE] | – | – | – | – | – | remaining at 0.25 h, 200 µM [9]: 63.4%; half-life at 200 µM [10]: 23.5 min; remaining at 2 h, 200 µM [11]: 2.41%; remaining at 1 h, 200 µM [12]: 34.5%; remaining at 1.5 h, 200 µM [13]: 17.3%
Oc1cc(C(F)(F)F)ccc1-c1nc(-c2ccccc2O)n(-c2ccccc2C(F)(F)F)n1 | 80.01 | – | – | 70.97 | 92.2 | –
Oc1cc(C(F)(F)F)ccc1-c1nc(-c2ccccc2O)n(-c2ccc(Cl)cc2)n1 | 87.25 | – | – | 67.99 | 96.09 | –
Cc1ccc(-n2nc(-c3ccc(C(F)(F)F)cc3O)nc2-c2ccccc2O)c(C)c1 | 93.31 | 94.8 | 230 | 73.72 | 106.25 | –
Oc1cc(C(F)(F)F)ccc1-c1nc(-c2ccccc2O)n(-c2cccc(Cl)c2)n1 | 92.73 | – | – | 72.33 | 100.29 | –
COc1ccccc1-n1nc(-c2ccc(C(F)(F)F)cc2O)nc1-c1ccccc1O | 85.59 | – | – | 70.74 | 96.2 | –
CC(C)c1ccc(-n2nc(-c3ccc(C(F)(F)F)cc3O)nc2-c2ccccc2O)cc1 | 100.41 | 51.4 | 144 | 69.66 | 108 | –
